These compounds were tested against T1, human EP4 receptors (Homo sapiens, UniProt P35408) (assay: cAMP assay in human EP4 transfectant). Details: HEK293 cells expressing human EP4 receptors; 1 nM PGE2, 0.2 mM IBMX, 37° C. for 10 min.
T1 construct: expressed in transfected cells
Type: cell-based
Experimental: cAMP Assay in Human EP4 Transfectant HEK293 cells expressing human EP4 receptors (hEP4 cells) are maintained in DMEM containing 10% FBS and 500 μg/ml geneticin. For harvesting hEP4 cells, culture medium is aspirated and cells in 75 cm^2 flask are washed with 10 ml of phosphate buffered saline (PBS). Another 10 ml of PBS is added to the cells and incubated for 20 min at room temperature. Human EP4 cells are harvested by pipetting and centrifuged at 300×g for 4 min. Cells are resuspended in DMEM without neutral red at a density of 7×10^5 cells/ml containing 0.2 mM IBMX (PDE inhibitor), 1 nM PGE2 and test compounds in PCR-tubes, and incubated at 37° C. for 10 min. The reaction is stopped by heating at 100° C. for 10 min with thermal cycler. Concentration of cAMP in reaction mixtures is determined with SPA cAMP Kit (Amersham) or cAMP Screen™ (Applied Biosystems) according to the manufacture's instruction. Reference: Eur. J. Pharmacol. 340 (1997) 227-241 cAMP assay in human EP4 transfectant were conducted using the method described above. IC50: the concentration of the individual compound required to reduce the amount of ligand by 50%.

T1 sequence (P35408 whole entry): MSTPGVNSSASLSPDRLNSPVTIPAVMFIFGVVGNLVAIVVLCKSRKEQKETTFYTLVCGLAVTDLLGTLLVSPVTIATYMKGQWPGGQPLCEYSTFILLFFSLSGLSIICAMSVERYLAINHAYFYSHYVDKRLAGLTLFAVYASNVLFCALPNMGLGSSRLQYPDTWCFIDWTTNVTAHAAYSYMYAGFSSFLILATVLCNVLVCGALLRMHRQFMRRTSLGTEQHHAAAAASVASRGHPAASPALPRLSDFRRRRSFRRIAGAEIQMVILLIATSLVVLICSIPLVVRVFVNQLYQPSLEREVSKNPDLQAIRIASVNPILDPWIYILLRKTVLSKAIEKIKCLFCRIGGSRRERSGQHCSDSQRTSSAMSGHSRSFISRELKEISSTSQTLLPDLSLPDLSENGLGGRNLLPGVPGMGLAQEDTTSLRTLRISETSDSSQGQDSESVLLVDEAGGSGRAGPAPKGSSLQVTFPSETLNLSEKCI

IC50	Structure (SMILES)
50 nM	C[C@H](NC(=O)c1cc(Cl)ccc1OCc1cc(F)ccc1F)c1ccc(C(=O)O)cc1 [EXAMPLE 32, 4-[(1S)-1-({5-CHLORO-2-[(2,5-DIFLUOROBENZYL)OXY]BENZOYL}AMINO)ETHYL]BENZOIC ACID]
240 nM	C[C@H](NC(=O)c1cc(Cl)cnc1OCCc1ccc(F)cc1)c1ccc(C(=O)O)cc1 [EXAMPLE 9, 4-{(1S)-1-[({5-CHLORO-2-[2-(4-FLUOROPHENYL)ETHOXY]PYRIDIN-3-YL}CARBONYL)AMINO]ETHYL}BENZOIC ACID]
55 nM	C[C@H](NC(=O)c1cc(Cl)ccc1OCc1ccc(F)cc1Cl)c1ccc(C(=O)O)cc1 [EXAMPLE 46, 4-[(1S)-1-({5-CHLORO-2-[(2-CHLORO-4-FLUOROBENZYL)OXY]BENZOYL}AMINO)ETHYL]BENZOIC ACID]
13 nM	C[C@H](NC(=O)c1cc(Cl)ccc1OCc1ccccc1Cl)c1ccc(C(=O)O)cc1 [EXAMPLE 22, 4-[(1S)-1-({5-CHLORO-2-[(2-CHLOROBENZYL)OXY]BENZOYL}AMINO)ETHYL]BENZOIC ACID]
510 nM	C[C@H](NC(=O)c1cc(Cl)ccc1O[C@H]1CC[C@@H](C)CC1)c1ccc(C(=O)O)cc1 [EXAMPLE 17, 4-[(1S)-1-({5-CHLORO-2-[(C/S4-METHYLCYCLOHEXYL)OXY]BENZOYL}AMINO)ETHYL]BENZOIC ACID]
46 nM	C[C@H](NC(=O)c1cc(Cl)ccc1OCc1ccc(F)cc1)c1ccc(C(=O)O)cc1 [EXAMPLE 25, 4-[(1S)-1-({5-CHLORO-2-[(4-FLUOROBENZYL)OXY]BENZOYL}AMINO)ETHYL]BENZOIC ACID]
72 nM	C[C@H](NC(=O)c1cc(Cl)cnc1OCc1ccc(Cl)cc1)c1ccc(C(=O)O)cc1 [EXAMPLE 40, 4-{(1S)-1-[({5-CHLORO-2-[(4-CHLOROBENZYL)OXY]PYRIDIN-3-YL}CARBONYL)AMINO]ETHYL}BENZOIC ACID]
467 nM	C[C@H](NC(=O)c1cc(Cl)ccc1OCCC1CCOCC1)c1ccc(C(=O)O)cc1 [EXAMPLE 42, 4-[(1S)-1-({5-CHLORO-2-[2-(TETRAHYDRO-2H-PYRAN-4-YL)ETHOXY]BENZOYL}AMINO)ETHYL]BENZOIC ACID]
126 nM	O=C(O)c1ccc(CNC(=O)c2cc(Cl)ccc2OCCc2ccc(F)cc2)cc1 [EXAMPLE 3, 4-[({5-CHLORO-2-[2-(4-FLUOROPHENYL)ETHOXY]BENZOYL}AMINO)METHYL]BENZOIC ACID]
48 nM	C[C@H](NC(=O)c1cc(Cl)ccc1OCCc1ccccc1F)c1ccc(C(=O)O)cc1 [EXAMPLE 10, 4-[(1S)-1-({5-CHLORO-2-[2-(2-FLUOROPHENYL)ETHOXY]BENZOYL}AMINO)ETHYL]BENZOIC ACID]
350 nM	C[C@H](NC(=O)c1cc(Cl)cnc1N(C)CCc1ccccc1)c1ccc(C(=O)O)cc1 [EXAMPLE 16, 4-{(1S)-1-[({5-CHLORO-2-[METHYL(2-PHENYLETHYL)AMINO]PYRIDIN-3-YL}CARBONYL)AMINO]ETHYL}BENZOIC ACID]
180 nM	C[C@H](NC(=O)c1cc(Cl)cnc1N(C)Cc1cccc(F)c1)c1ccc(C(=O)O)cc1 [EXAMPLE 53, 4-{(1S)-1-[({5-CHLORO-2-[(3-FLUOROBENZYL)(METHYL)AMINO]PYRIDIN-3-YL}CARBONYL)AMINO]ETHYL}BENZOIC ACID]
107 nM	O=C(O)c1ccc(CNC(=O)c2cc(Cl)ccc2OCCc2ccc(Cl)cc2)cc1 [EXAMPLE 4, 4-[({5-CHLORO-2-[2-(4-CHLOROPHENYL)ETHOXY]BENZOYL}AMINO)METHYL]BENZOIC ACID]
100 nM	C[C@H](NC(=O)c1cc(Cl)cnc1N(C)Cc1ccccc1Cl)c1ccc(C(=O)O)cc1 [EXAMPLE 48, 4-{(1S)-1-[({5-CHLORO-2-[(2-CHLOROBENZYL)(METHYL)AMINO]PYRIDIN-3-YL}CARBONYL)AMINO]ETHYL}BENZOIC ACID]
78 nM	C[C@H](NC(=O)c1cc(Cl)cnc1OCCc1ccc(Cl)cc1)c1ccc(C(=O)O)cc1 [EXAMPLE 15, 4-{(1S)-1-[({5-CHLORO-2-[2-(4-CHLOROPHENYL)ETHOXY]PYRIDIN-3-YL}CARBONYL)AMINO]ETHYL}BENZOIC ACID]
149 nM	O=C(O)c1ccc(CNC(=O)c2cc(Cl)ccc2OCCc2ccccc2)cc1 [EXAMPLE 1, 4-({[5-CHLORO-2-(2-PHENYLETHOXY-)BENZOYL]AMINO}METHYL)BENZOIC ACID]

IC50	Structure (SMILES)
130 nM	Cc1ccccc1CCOc1ncc(Cl)cc1C(=O)N[C@@H](C)c1ccc(C(=O)O)cc1 [EXAMPLE 19, 4-{(1S)-1-[({5-CHLORO-2-[2-(2-METHYLPHENYL)ETHOXY]PYRIDIN-3-YL}CARBONYL)AMINO]ETHYL}BENZOIC ACID]
62 nM	C[C@H](NC(=O)c1cc(Cl)ccc1OCCOc1ccccc1)c1ccc(C(=O)O)cc1 [EXAMPLE 26, 4-((1S)-1-{[5-CHLORO-2-(2-PHENOXYETHOXY)BENZOYL]AMINO}ETHYL)BENZOIC ACID]
35 nM	C[C@H](NC(=O)c1cc(Cl)ccc1OC1CCCCC1)c1ccc(C(=O)O)cc1 [EXAMPLE 13, 4-((1S)-1-{[5-CHLORO-2-(CYCLOHEXYLOXY)BENZOYL]AMINO}ETHYL)BENZOIC ACID]
29 nM	C[C@H](NC(=O)c1cc(Cl)ccc1OCc1ccc(Cl)cc1)c1ccc(C(=O)O)cc1 [EXAMPLE 24, 4-[(1S)-1-({5-CHLORO-2-[(4-CHLOROBENZYL)OXY]BENZOYL}AMINO)ETHYL]BENZOIC ACID]
63 nM	C[C@H](NC(=O)c1cc(Cl)ccc1OCc1ccc(F)c(F)c1)c1ccc(C(=O)O)cc1 [EXAMPLE 33, 4-[(1S)-1-({5-CHLORO-2-[(3,4-DIFLUOROBENZYL)OXY]BENZOYL}AMINO)ETHYL]BENZOIC ACID]
360 nM	C[C@H](NC(=O)c1cc(Cl)ccc1OCC1CCCO1)c1ccc(C(=O)O)cc1 (stereo partly drawn) [EXAMPLE 49, 4-((1S)-1-{[5-CHLORO-2-(TETRAHYDROFURAN-2-YLMETHOXY)BENZOYL]AMINO}ETHYL)BENZOIC ACID]
41 nM	C[C@H](NC(=O)c1cc(Cl)ccc1OCCc1ccc(F)cc1)c1ccc(C(=O)O)cc1 [EXAMPLE 34, 4-[(1S)-1-({5-CHLORO-2-[2-(4-FLUOROPHENYL)ETHOXY]BENZOYL}AMINO)ETHYL]BENZOIC ACID]
76 nM	C[C@H](NC(=O)c1cc(Cl)cnc1OCc1ccccc1Cl)c1ccc(C(=O)O)cc1 [EXAMPLE 39, 4-{(1S)-1-[({5-CHLORO-2-[(2-CHLOROBENZYL)OXY]PYRIDIN-3-YL}CARBONYL)AMINO]ETHYL}BENZOIC ACID]
110 nM	C[C@H](NC(=O)c1cc(Cl)ccc1OCc1ccc(F)cc1F)c1ccc(C(=O)O)cc1 [EXAMPLE 35, 4-[(1S)-1-({5-CHLORO-2-[(2,4-DIFLUOROBENZYL)OXY]BENZOYL}AMINO)ETHYL]BENZOIC ACID]
21 nM	Cc1ccc(CCOc2ccc(Cl)cc2C(=O)N[C@@H](C)c2ccc(C(=O)O)cc2)cc1 [EXAMPLE 12, 4-[(1S)-1-({5-CHLORO-2-[2-(4-METHYLPHENYL)ETHOXY]BENZOYL}AMINO)ETHYL]BENZOIC ACID]
98 nM	C[C@H](NC(=O)c1cc(Cl)ccc1OCCc1c(F)cccc1F)c1ccc(C(=O)O)cc1 [EXAMPLE 8, 4-[(1S)-1-({5-CHLORO-2-[2-(2,6-DIFLUOROPHENYL)ETHOXY]BENZOYL}AMINO)ETHYL]BENZOIC ACID]
75 nM	C[C@H](NC(=O)c1cc(Cl)ccc1OCc1ccccc1)c1ccc(C(=O)O)cc1 [EXAMPLE 38, 4-((1S)-1-{[2-(BENZYLOXY)-5-CHLOROBENZOYL]AMINO}ETHYL)BENZOIC ACID]
170 nM	C[C@H](NC(=O)c1cc(Cl)ccc1OCc1ccccc1F)c1ccc(C(=O)O)cc1 [EXAMPLE 36, 4-[(1S)-1-({5-CHLORO-2-[(2-FLUOROBENZYL)OXY]BENZOYL}AMINO)ETHYL]BENZOIC ACID]
39 nM	C[C@H](NC(=O)c1cc(Cl)ccc1OCc1ccccc1C#N)c1ccc(C(=O)O)cc1 [EXAMPLE 41, 4-[(1S)-1-({5-CHLORO-2-[(2-CYANOBENZYL)OXY]BENZOYL}AMINO)ETHYL]BENZOIC ACID]
120 nM	C[C@H](NC(=O)c1cc(Cl)cnc1N(C)Cc1ccccc1F)c1ccc(C(=O)O)cc1 [EXAMPLE 50, 4-{(1S)-1-[({5-CHLORO-2-[(2-FLUOROBENZYL)(METHYL)AMINO]PYRIDIN-3-YL}CARBONYL)AMINO]ETHYL}BENZOIC ACID]
65 nM	C[C@H](NC(=O)c1cc(Cl)cnc1N(C)Cc1cccc(Cl)c1)c1ccc(C(=O)O)cc1 [EXAMPLE 52, 4-{(1S)-1-[({5-CHLORO-2-[(3-CHLOROBENZYL)(METHYL)AMINO]PYRIDIN-3-YL}CARBONYL)AMINO]ETHYL}BENZOIC ACID]

Structure (SMILES)	IC50
CC(C)COc1ccc(Cl)cc1C(=O)N[C@@H](C)c1ccc(C(=O)O)cc1 [EXAMPLE 30, 4-{(1S)-1-[(5-CHLORO-2-ISOBUTOXYBENZOYL)AMINO}ETHYL]BENZOIC ACID]	140 nM
COC(C)(C)CCOc1ccc(Cl)cc1C(=O)N[C@@H](C)c1ccc(C(=O)O)cc1 [EXAMPLE 20, 4-((1S)-1-{[5-CHLORO-2-(3-METHOXY-3-METHYLBUTOXY)BENZOYL]AMINO}ETHYL)BENZOIC ACID]	510 nM
CC(C)CCOc1ncc(Cl)cc1C(=O)N[C@@H](C)c1ccc(C(=O)O)cc1 [EXAMPLE 31, 4-[(1S)-1-({[5-CHLORO-2-(3-METHYLBUTOXY)PYRIDIN-3-YL]CARBONYL}AMINO)ETHYL]BENZOIC ACID]	140 nM
CC(C)CCOc1ccc(Cl)cc1C(=O)N[C@@H](C)c1ccc(C(=O)O)cc1 [EXAMPLE 14, 4-((1S)-1-{[5-CHLORO-2-(3-METHYLBUTOXY)BENZOYL]AMINO}ETHYL)BENZOIC ACID]	41 nM

From patent publication US20050250818A1, “Ortho substituted aryl or heteroaryl amide compounds” (Pfizer Inc, priority 2004, published 2005)
